Test results: PMC12649549, “Sequence Permutation Generated Lysine and Tryptophan-Rich Antimicrobial Peptides with Enhanced Therapeutic Index” (Antibiotics, 2025)
Read-outs that look alike come from different tables or passages of the source.

Tests used:
[1] = tested on: Both Gram-positive and -negative bacteria; assay: Geometric mean MIC, therapeutic index and fold changes of MIC, whole panel of strains; type: cell-based; settings: for weakening of antibacterial efficacy (MIC): LYM broth
Procedure: In this study, we aimed to investigate the potential of W5K series peptides for therapeutic use. To evaluate their efficacy for antibacterial therapy, we used the Therapeutic Index (TI) as a measure of their cell selectivity. The TI was calculated as the ratio of the concentration causing 10% hemolysis of human red blood cells (HC10) to the geometric mean minimum inhibitory concentration (GM) of the peptides against both Gram-negative and Gram-positive bacteria. This parameter was used to quantitatively assess the balance between antibacterial potency and cytotoxicity among the W5K derivatives.
(§1) The antibacterial activities of the peptides in Müller-Hinton (MH) broth and modified LYM broth were determined using the standard broth microdilution method as per Clinical and Laboratory Standards Institute (CLSI) guidelines. The LYM broth was prepared with specific components and adjusted to different conditions, including varying concentrations of NaCl and MgCl2, and different pH levels. To prepare the LYM broth, 5.4 mM KCl, 5.6 mM Na2HPO4, 0.5 mM MgSO4, and 1.0 mM sodium citrate were added. Additionally, 0.4 mg of ZnCl2, 2.0 mg of FeCl3·6H2O, 0.1 mg of CuSO4·5H2O, 0.1 mg of MnSO4·H2O, 0.1 mg of Na2B4O7∙10H2O, 700 mg of amino acid mixtures without tryptophan (Takara Bio Inc., San Jose, CA, USA), and 20 mg of L-tryptophan were added per liter of medium. The pH was adjusted to 7.4, and a vitamin mixture (100X, Sigma) and glucose concentration of 2% were added. For different conditions of LYM broth, NaCl concentrations of 300, 200, 150, and 50 mM, MgCl2 concentrations of 2.5, 1.5, and 0.5 mM, and pH levels of 6.5, 5.5, and 4.5 were adjusted. Bacterial strains were incubated in MH broth overnight, regrown, and diluted to a final concentration of 5 × 10^5 CFU/mL. Peptides were added to each well at final concentrations of 50, 25, 12.5, 6.25, 3.13, 1.56, and 0.78 µg/mL, and 99 µL of diluted microbes was loaded into each well of a polypropylene 96-well plate. […] The Morpheus HeatMap software (https://software.broadinstitute.org/morpheus/) was used to display MIC values on a color scale. All experiments were independently repeated three times.

[2] = tested on: S. aureus ATCC 33592
Procedure: The antibacterial and salt-resistant activity of the peptides was tested using Escherichia coli (ATCC 25922), Pseudomonas aeruginosa Migula (ATCC 27853), Acinetobacter sp. (BCRC number 14B0091, BCRC number 14B0097, and BCRC number 14B0100), and Staphylococcus aureus sp. strains (ATCC 25923, ATCC 33591, ATCC 33592, ATCC 33593, and ATCC 6538). All bacteria were obtained from the Food Industry Research and Development Institute (Hsinchu, Taiwan) and cultured in sterilized Müller-Hinton (MH) broth at 37 °C and 200 rpm for 8 h. The inoculum concentrations were determined by measuring the optical density at 600 nm (OD 600 = 1, approximately 10^8 CFU/mL) using an Ultrospec 2100 pro UV-Visible spectrophotometer (Biochrom Ltd., Cambridge, UK) after 8 h of culture.
as §1, with “For different conditions of LYM broth, NaCl concentrations of 300, 200, 150, and 50 mM, MgCl2 concentrations of 2.5, 1.5, and 0.5 mM, and pH levels of 6.5, 5.5, and 4.5 were adjusted.” left out

[3] = tested on: Pseudomonas aeruginosa Migula (ATCC 27853)
Summary of the method: (§2)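 Salt and pH tolerance was assessed by determining MICs in LYM medium containing 50–300 mM NaCl, 0.5–2.5 mM MgCl2, or at pH 4.5–6.5, alongside MH broth. The inoculum was 5 × 10^5 CFU/mL.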

[4] = tested on: S. aureus ATCC 33591
Summary of the method: as §2

[5] = tested on: S. aureus ATCC 33593
Summary of the method: as §2

[6] = LYM broth, 0 mM NaCl, 16 h, 37 °C
[7] = LYM broth, 50 mM NaCl, 16 h, 37 °C
[8] = LYM broth, 100 mM NaCl, 16 h, 37 °C
[9] = LYM broth, 200 mM (NaCl), 16 h, 37 °C
[10] = LYM broth, 300 mM (NaCl), 16 h, 37 °C
[11] = MH broth, 5 × 10^5 CFU/mL, 16 h, 37 °C, repeated three times

Ac-KKWRKWLKWLAKK-NH2 [W5K/A9W]
up to 2 fold: weakening of antibacterial efficacy (MIC) ([1]; MgCl2 rising above 0.5 mM)
6.25 µg/mL: MIC [2, 9] | MIC [3, 10] | MIC [4, 8] | MIC [4, 9] | MIC [5, 9]
1.56 µg/mL: MIC [3, 6] | MIC ([3]; LYM broth, 0.5 mM MgCl2) | MIC [3, 7] | MIC [3, 8] | MIC ([3]; LYM broth, pH 4.5) | MIC ([3]; LYM broth, pH 5.5) | MIC ([3]; LYM broth, pH 6.5)
4.1 µg/mL: GM G−/+ (geometric mean of the MIC values) ([1]; Both Gram-positive and -negative bacteria, MH broth, MIC >50 µg/mL counted as 100 µg/mL)
12.5 µg/mL: MIC [2, 10] | MIC [2, 11] | MIC [4, 10] | MIC [4, 11] | MIC [5, 10] | MIC [5, 11]
7.3: Therapeutic Index (TI) G−/+ ([1]; HC10/GM, both Gram-positive and -negative bacteria)
3.13 µg/mL: MIC [2, 6] | MIC ([2]; LYM broth, 0.5 mM MgCl2) | MIC ([2]; LYM broth, 1.5 mM MgCl2) | MIC ([2]; LYM broth, 2.5 mM MgCl2) | MIC [2, 7] | MIC [2, 8] | MIC ([2]; LYM broth, pH 4.5) | MIC ([2]; LYM broth, pH 5.5) | MIC ([2]; LYM broth, pH 6.5) | MIC ([3]; LYM broth, 1.5 mM MgCl2) | MIC ([3]; LYM broth, 2.5 mM MgCl2) | MIC [3, 9] | MIC [3, 11] | MIC [4, 6] | MIC ([4]; LYM broth, 0.5 mM MgCl2) | MIC ([4]; LYM broth, 1.5 mM MgCl2) | MIC ([4]; LYM broth, 2.5 mM MgCl2) | MIC [4, 7] | MIC ([4]; LYM broth, pH 4.5) | MIC ([4]; LYM broth, pH 5.5) | MIC ([4]; LYM broth, pH 6.5) | MIC [5, 6] | MIC ([5]; LYM broth, 0.5 mM MgCl2) | MIC ([5]; LYM broth, 1.5 mM MgCl2) | MIC ([5]; LYM broth, 2.5 mM MgCl2) | MIC [5, 7] | MIC [5, 8] | MIC ([5]; LYM broth, pH 4.5) | MIC ([5]; LYM broth, pH 5.5) | MIC ([5]; LYM broth, pH 6.5)
up to 4 fold: weakening of antibacterial efficacy (MIC) ([1]; 300 mM NaCl)
